Earlier results, collected in patent publication US9968546B2, “Topical composition for skin treatment to reduce lines and wrinkles of the face and body using a dual DNA repair mechanism to address damage caused by aging and ultra-violet induced damage to the skin with combination of skin turgor enhancement compounds” (priority 2015, dated 2018).

How the values were obtained:
[1] = clinically, versus regular Vitamin E
[2] = test system: p53 expression
[3] = test system: 8-OHdG
[4] = test system: melanin synthesis; conditions: concentration of 0.1%
[5] = test system: tyrosinase

Tocotrienol
strength and effectiveness at repairing skin damage relative to regular Vitamin E [1]: 40-50 times

CCCCCCCCC(CCCCCC)C(=O)OC[C@H](OC(=O)C(CCCCCC)CCCCCCCC)[C@H]1OC(=O)C(OC(=O)C(CCCCCC)CCCCCCCC)=C1OC(=O)C(CCCCCC)CCCCCCCC (stereo partly drawn) [tetrahexyldecyl ascorbate]
p53 expression induced by UV-B radiation [2]: decreases | 8-OHdG induced by UV-A radiation [3]: decreases | reduction of melanin synthesis [4]: 80%

CC1(C)C=Cc2c(ccc3c2OC[C@@H](c2ccc(O)cc2O)C3)O1 [Glabridin]
tyrosinase-inhibition activity relative to Kojic acid ([5]; versus Kojic acid): 25 times | tyrosinase-inhibition activity relative to ascorbic acid ([5]; versus ascorbic acid): 75 times
